Assay: xn = mol fraction of the nth substance listed

CCC(=O)CC + CN(C)c1ccccc1
viscosity [mPa·s], 101 kPa
Conditions	303.15 K	308.15 K
x2 = 0.0612	0.548	0.499
x2 = 0.1145	0.645	0.588
x2 = 0.1652	0.732	0.668
x2 = 0.2302	0.832	0.764
x2 = 0.3025	0.928	0.859
x2 = 0.3741	1.006	0.935
x2 = 0.4256	1.053	0.98
x2 = 0.5023	1.105	1.029
x2 = 0.5714	1.137	1.056
x2 = 0.6325	1.155	1.069
x2 = 0.7045	1.165	1.074
x2 = 0.7812	1.167	1.073
x2 = 0.8512	1.165	1.073

C1CCCC1 + CCCCCO
101.3 kPa
Conditions	viscosity [mPa·s]
298.15 K, x1 = 0.0498	3.211
298.15 K, x1 = 0.0796	3.013
298.15 K, x1 = 0.1294	2.679
298.15 K, x1 = 0.1855	2.343
298.15 K, x1 = 0.2386	2.037
298.15 K, x1 = 0.2579	1.924
298.15 K, x1 = 0.2645	1.883
298.15 K, x1 = 0.2919	1.755
298.15 K, x1 = 0.3012	1.709
298.15 K, x1 = 0.351	1.481
298.15 K, x1 = 0.3712	1.406
298.15 K, x1 = 0.4221	1.221
298.15 K, x1 = 0.4544	1.118
298.15 K, x1 = 0.5073	0.992
298.15 K, x1 = 0.5388	0.926
298.15 K, x1 = 0.569	0.869
298.15 K, x1 = 0.596	0.827
298.15 K, x1 = 0.6189	0.79
298.15 K, x1 = 0.6343	0.771
298.15 K, x1 = 0.6621	0.739
298.15 K, x1 = 0.6893	0.707
298.15 K, x1 = 0.7282	0.685
298.15 K, x1 = 0.774	0.663
298.15 K, x1 = 0.8207	0.613
298.15 K, x1 = 0.8699	0.566
298.15 K, x1 = 0.9192	0.515
298.15 K, x1 = 0.9698	0.447
308.15 K, x1 = 0.0419	2.415
308.15 K, x1 = 0.1319	2.057
308.15 K, x1 = 0.2149	1.783
308.15 K, x1 = 0.2986	1.542
308.15 K, x1 = 0.3735	1.35
308.15 K, x1 = 0.4	1.287
308.15 K, x1 = 0.4437	1.19
308.15 K, x1 = 0.4804	1.118
308.15 K, x1 = 0.5152	1.049
308.15 K, x1 = 0.6882	0.817
308.15 K, x1 = 0.7025	0.798
308.15 K, x1 = 0.7196	0.781
308.15 K, x1 = 0.7454	0.752
308.15 K, x1 = 0.7726	0.727
308.15 K, x1 = 0.809	0.681
308.15 K, x1 = 0.8542	0.617
308.15 K, x1 = 0.9094	0.517
308.15 K, x1 = 0.955	0.418
318.15 K, x1 = 0.1213	1.768
318.15 K, x1 = 0.1891	1.573
318.15 K, x1 = 0.2652	1.36
318.15 K, x1 = 0.34	1.171
318.15 K, x1 = 0.4015	1.035
318.15 K, x1 = 0.4409	0.953
318.15 K, x1 = 0.4863	0.864
318.15 K, x1 = 0.5184	0.807
318.15 K, x1 = 0.5402	0.775
318.15 K, x1 = 0.5588	0.74
318.15 K, x1 = 0.6063	0.67
318.15 K, x1 = 0.665	0.593
318.15 K, x1 = 0.7127	0.537
318.15 K, x1 = 0.7882	0.467
318.15 K, x1 = 0.8688	0.405
318.15 K, x1 = 0.9451	0.359

O=S(=O)([O-])[O-].[Cu+2] + O
viscosity [mPa·s]
Conditions	308.15 K	313.15 K	323.15 K
101.3 kPa, x1 = 0.00112	0.742	0.673	0.5823
101.3 kPa, x1 = 0.002247	0.7918	0.7176	0.6001
101.3 kPa, x1 = 0.004484	0.8376	0.7579	0.6314
101.3 kPa, x1 = 0.008927	0.9348	0.8476	0.7076
101.3 kPa, x1 = 0.0177	–	0.977	0.817
101.33 kPa, x1 = 0.000905	0.7428	0.6739	0.5628
101.33 kPa, x1 = 0.002718	0.7922	0.7182	0.6005
101.33 kPa, x1 = 0.00453	0.838	0.7585	0.6319
101.33 kPa, x1 = 0.006344	0.8866	0.8013	0.6685
101.33 kPa, x1 = 0.008159	0.9348	0.8482	0.7082
